# Molecular target: cAMP-dependent protein kinase type I-alpha regulatory subunit (Bos taurus) + cAMP-dependent protein kinase catalytic subunit beta (Mus musculus) (UniProt P00514+P68181)
# Assay: PKA-R1A complex activators, counter-screen titration – biochemical, Cy5-IP20 fluorescence polarization, 1536-well, triplicate, counter-screen for PKA-R2B activator project, dose response (AID 504896)
# Settings: PKA-R1A holoenzyme, activation
row,SMILES,EC50 [nM]
1,CCOP1(=O)OCC2OC(n3cnc4c(N)ncnc43)C(O)C2O1 (stereo not given),2680
2,Nc1ncnc2c1nc(Br)n2[C@@H]1O[C@@H]2COP(=O)(O)O[C@H]2[C@H]1O,34.4
3,Nc1ncnc2c1nc(Sc1ccc(Cl)cc1)n2[C@@H]1O[C@@H]2COP(=O)(O)O[C@H]2[C@H]1O,32.7
4,CCCC(=O)Nc1ncnc2c1ncn2[C@@H]1O[C@@H]2OP(=O)(O)OC[C@H]2[C@H]1OC(=O)CCC,6700
5,Nc1nc2c(nc(Br)n2[C@@H]2O[C@@H]3COP(=O)(O)O[C@H]3[C@H]2O)c(=O)[nH]1,7830

# Source: PubChem BioAssay AID504896 (The Scripps Research Institute Molecular Screening Center, 2011)
